# Data: patent US20240139125A1 (INDUSTRIAL COOPERATION FOUNDATION JEONBUK NATIONAL …, priority 2020, published 2024)
# How the values were obtained:
# Assay type in all cases: cell-based
# [1] = system: BI-1 (TMBIM6) knockout HT1080 cells; assay: Cell proliferation of knockout cells with BIA (off-target check)
# Experimental: BI-1 (TMBIM6) WT HT1080 cells, BI-1 (TMBIM6) knockout HT1080 , human breast cancer cell lines MCF7, MDA-MB-231 and SKBR3 were treated with BIA 0.5, 1.0, 2.0, 5.0, 10.0 μM and cell proliferation was confirmed. Cells with proliferation of all cell lines by 5 μM BIA treatment It was confirmed that viability was inhibited (see FIG. 57).
# Cell proliferation in BI-1 (TMBIM6) knockout HT1080 cells was investigated to determine if the antiproliferative effect by BIA at this dose was an off-target effect. The cell proliferation rate and AKT phosphorylation of BI-1 (TMBIM6) knockout HT1080 cells were the same with or without BIA except for high concentrations of “20 and 30 μM” (see FIG. 57).
# Cell proliferation was investigated in BI-1 (TMBIM6) knockout HT1080 cells to determine if the antiproliferative effect by BIA at the dose was a non-targeted effect. The cell proliferation rate and AKT phosphorylation of BI-1 (TMBIM6) knockout HT1080 cells were the same in the treated and untreated groups of BIA except for high concentrations of “20 and 30 μM” (see FIGS. 63A and 63B).
# [2] = system: HT1080 cells stably overexpressing BI-1; assay: Cell proliferation of BI-1 overexpressing cells with BIA; details: 1 day after treatment
# [3] = system: AKT serine phosphorylation (S473); assay: AKT phosphorylation by Western blotting
# Experimental: This is AKT signaling key to cancer cell growth, and BIA and its analogues tend to inhibit it. Only representative experimental results were presented. Data were expressed as mean±SD. After one-way ANOVA, Tukey's post hoc test is conducted.
# After cell recovery, cell lytic buffer (10 mM Tris-Cl (pH 7.4), 5 mM EDTA, 130 mM NaCl, 1% Triton X-100) and protease inhibitor mix protease inhibitor cocktail (protease inhibitor cocktail and phosphatase inhibitor cocktail) were added and left at 4° C. for 30 minutes. After breaking the cells with ultrasound, they were centrifuged at 13,000× g at 4° C. for 30 minutes, and then the supernatant was taken, and the concentration was quantified using a protein quantification kit (Bio-Rad Laboratories, Hercules, CA, USA). 20 ug of the obtained protein was electrophoresis with polyacrylamide gel electrophoresis (SDS-PAGE) followed by electrotransfer to PVDF membrane (Bio-Rad). The membrane was blocked at room temperature for 1 hour with a TBS-T solution (20 mM Tris (pH 7.5), 137 mM NaCl, 0.05% Triton X-100) containing 5% skim milk. Then, after switching to a solution containing the primary antibody, it was reacted at 4° C. The membrane after the reaction was washed three times with TBS-T solution, reacted with a secondary antibody, and then luminesced using an ECL kit and autoradiography. […]
# [4] = target: T1, binding of BI-1 and mTORC2 and ribosomes (Homo sapiens, UniProt P55061); assay: PLA, immunoprecipitation and gel filtration of BI-1/mTORC2/ribosome binding
# T1 construct: expressed in transfected cells
# T1 sequence (P55061 whole entry): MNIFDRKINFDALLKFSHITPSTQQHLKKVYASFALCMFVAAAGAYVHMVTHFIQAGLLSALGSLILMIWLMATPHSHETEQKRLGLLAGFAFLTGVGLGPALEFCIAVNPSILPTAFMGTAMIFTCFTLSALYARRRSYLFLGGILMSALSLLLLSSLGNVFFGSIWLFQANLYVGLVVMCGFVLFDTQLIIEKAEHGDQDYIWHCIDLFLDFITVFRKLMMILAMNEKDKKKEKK
# Experimental: The graph below quantifies the fine and bright spots (n=5 independent experiment). The scale bar represents 20 μm. Data were expressed as mean±SD. **p<0.01, ****p<0.0001, followed by a binary ANOVA, followed by Bonferroni's post hoc test.
# FIG. 62B is the result of PLA between RICTOR and the following proteins mTOR, RPL19 and RPS 16 in HT1080 cells treated with 10 μM BIA. The scale bar represents 20 μm. The graph on the right quantifies the fine and bright points (n=5 independent experiment). Data were expressed as mean±SD. **p<0.01, ***p<0.001, ****p<0.0001, followed by a binary ANOVA followed by Bonferroni's post hoc test.
# HT1080 cells knocked out of BI-1 (using 8 10 cm cell culture dishes for each sample) were temporarily transformed using HA-BI-1 (TMBIM6) plasmids. HT1080 cells knocked out of BI-1 were treated with 10 μM of 2E-1-2-Aminophenyl-3-3-nitrophenyl-2-propen-1-one (BIA). After 24 hours, CHAPS containing protease inhibitor cocktail and phosphatase inhibitor cocktail Cells were lysed in 1.0 ml of buffer (pH 7.4, 150 mM NaCl, 1 mM EDTA and 25 mM HEPES at 0.3% CHAPS). The cell lysate was filtered with a 0.45 μm syringe filter. […] 50 μL of each fraction was electrophoresis with SDS-PAGE and then detected with various antibodies. […]
# [5] = system: HT1080, MCF7, MDA-MB-231 and SKBR3 cells; assay: Cell migration (Transwell, wound healing)
# Experimental: Image (A) and quantification graph (B) (n=3 independent experiment).
# FIG. […] The graph on the right quantifies migrated cells from BIA-treated cells normalized to control cells (n=3 independent experiments. Data were expressed in mean±SD. **p<0.01, ***p<0.001, two-tailed unpaired t-test simulation. The scale bar represents 15 μm.
# It was used and checked. Cells were treated with trypsin, and serum and 2×10^4 cells were added to the upper chamber in DMEM, cells transported to the lower chamber via transwell for 12 hours were fixed and stained with crystal violet to perform migration analysis.
# [6] = system: HT1080, PANC-1, Capan-1 and MIA PaCa-2; assay: Cell viability (crystal violet), BIA versus mTOR inhibitors; details: 10 μM
# PANC-1 cells = assay: as above; details: 10 μM
# [7] = system: association between RICTOR and mTOR or between RICTOR and RPL19; assay: Proximity ligation assay in PANC-1 cells; details: PLA
# From the text: The graph on the right quantifies the fine, bright points (n=5 independent experiment). The scale bar represents 20 μm. Data were expressed as mean±SD. **p<0.01, Bonferroni's post hoc test after binary ANOVA.
structure (smiles),measurement,setting,value
"Nc1ccccc1C(=O)/C=C/c1cccc([N+](=O)[O-])c1 [BIA, 2E-1-2-Aminophenyl-3-3-nitrophenyl-2-propen-1-one]",dose-dependent cell survival,[1]; BI-1 (TMBIM6) knockout cells,did not show a decrease
same,cell proliferation rate and AKT phosphorylation with or without BIA,"[1]; BI-1 knockout HT1080, except for high concentrations of 20 and 30 μM",the same
same,sensitivity to BIA (cell proliferation),[2],high sensitivity
same,phosphorylation of AKT,"[3]; BIA-treated cells, following loss of BI-1/mTORC2/ribosome binding",complete reduction
same,AKT serine phosphorylation S473,"[3]; HT1080 cells, 1 or 2 μM",inhibited
same,phosphorylation of AKT,"[3]; MDA-MB-231 cells, 1 or 2 μM",equally inhibited
same,phosphorylation of AKT,"[3]; SKBR3 cells, 1 or 2 μM",equally inhibited
same,protein interactions between mTORC2 and ribosomes or binding of BI-1 and mTORC2 and ribosomes,"[4]; HT1080 cells, PLA and immunoprecipitation",inhibited
same,co-elution pattern with mTORC2 components (mTOR and RICTOR) and ribosomes (RPL19),"[4]; gel filtration, BI-1 overexpressed HT1080 cells, BIA for 24 hours",delayed
same,cell migration,"[5]; HT1080, MCF7, MDA-MB-231 and SKBR3 cells, 2.0 μM BIA",reduced
same,cell migration,"[5]; HT1080 cells, FIGS. 64A and 64B (migration, wound healing 2 μM)",reduced
same,migration of cancer cells,"[5]; HT1080 fibrosarcoma cells, 10 μM, Transwell 12 hours",strongly inhibited
same,cell viability compared to OSI-027 and Voxtalisib and other mTOR inhibitors,[6],significantly reduced
same,live cells,PANC-1 cells,almost removed live cells
same,association between RICTOR and mTOR or between RICTOR and RPL19,[7],reduced
